Consider five compounds from patent US6180083A, “Tropane derivatives useable in particular for in vivo detection of dopamine transporters” (CIS bio International, priority 1996, dated 2001).

Read-outs that look alike come from different tables or passages of the source.

The target of series [1] is dopamine transporter. The settings on record: Bonnet and Constantin 1986; cited from earlier work.
In series [2] the target is T1, dopamine transporters (Rattus norvegicus, UniProt P23977). The settings on record: document 11; cited from earlier work.
In series [3] the target is T1, dopamine transporters. The series is described as follows: affinity of IPT for dopamine transporters (document 11). In kind it is binding. Particulars: from document 11 values. An excerpt:
Therefore a specificity Kd(5-HT)/Kd(DA) of approximately 5 is obtained.
By way of comparison, the affinity of compound IPT for dopamine transporters described in document 11 corresponds to: […]

The next series concerns the target serotonin transporters. The settings on record: document 11, page 320; cited from earlier work.
Series [4] deals with T2, noradrenaline transporter (Rattus norvegicus, UniProt Q63380).
T2 construct: in vitro studies are conducted on brain membrane preparations; from tissue; host or cells: brain membrane preparations
Put plainly: in vitro competition with [^3 H]-nisoxetine on brain membrane preparations. Format: binding. The procedure: (§1) In this example, in vitro studies are conducted on brain membrane preparations.
(§2) These studies are competition studies between [^3 H]-GBR 12935 (dopamine transporter), [^3 H]-paroxetine (serotonin transporter), [^3 H]-nisoxetine (noradrenaline transporter) and the iodinated derivative of example 1 (PE21).
(§3) The inhibition constants Ki (nM) obtained with the compound of the invention PE21 in competition with the different ligands are given in table 4.
(§4) Med., 1996, 37, pages 1197-1202 for tests of the same type conducted with β-CIT and iodoaltropane described in WO-A-95/11901.

Series [5] deals with T3, serotonin transporter (Rattus norvegicus, UniProt P31652).
T3 construct: in vitro studies are conducted on brain membrane preparations; from tissue; host or cells: brain membrane preparations
Put plainly: biochemical. In kind it is binding. The procedure: as §1, §4

For series [6], the system named is dopamine transporter. Put plainly: in vivo brain biodistribution in the rat with preinjection of GBR 12909 (specific inhibitor of the dopamine transporter). The settings on record: for fixation in the striatum prevented/inhibited by preinjection of GBR 12909: GBR 12909 5 mg/kg i.v. 30 min before, 2 hours after injection. Also noted: species or system rat (male Wistar). The procedure:
(§5) In this example, in vivo tests in the rat are used to study the affinity and specificity of the compound of example 1, hereinafter called PE21, for the dopamine transporter.
(§6) For this purpose 3 batches of male Wistar rats are used using 6 rats per batch. Batch number 1 is first given an intravenous injection of GBR 12909 (specific inhibitor of the dopamine transporter produced by RBI Bioblock) at a dose of 5 mg/kg, and 30 minutes later an injection of the compound of example 1 is given by intravenous route, at a dose of 8.10^-6 mg/kg.
(§7) Batch number 3, or the reference batch, only receives an intravenous injection of the compound of example 1.
(§8) 2 hours later, the animals are sacrificed and the doses of radioactivity in the cerebellum, striatum and frontal cortex tissues are determined.
(§9) The results obtained are given in FIG. 2 and are expressed as a % of the dose injected per gram of tissue.
(§10) In this figure, the columns in white relate to batch number 3 (reference), the shaded columns relate to batch number 1 which received GBR 12909 and the dotted columns relate to batch number 2 which received paroxetine.
(§11) In this example, the same operating mode as in example 14 is followed to conduct the same in vivo brain biodistribution study in the rat, but using the compound of the prior art β-CIT (3b-4-iodo[^125 I]phenyl)-tropan-2β-carboxylic acid methyl ester) instead of the compound of example 1.

Series [7] concerns serotonin transporter. The series is described as follows: in vivo brain biodistribution in the rat with preinjection of paroxetine (specific inhibitor of the serotonin transporter). More on the design: species or system rat (male Wistar). Particulars: for specificity for the dopamine transporter compared with the serotonin transporter in vivo: rat brain. The procedure: as §5
Batch number 2 first receives an injection of paroxetine (specific inhibitor of the serotonin transporter made by Beecham laboratories) at a dose of 5 mg/kg, and 30 minutes later an injection of the compound of example 1 is given under the same conditions as for batch number 1.
as §7, §8, §9, §10, §11

Series [8] has as its target dopamine transporter. The settings on record: [^3 H]Win35428; document 10; read-out: Affinity: Ki (nM) Dopamine (DA); cited from earlier work.
Series [9] has as its system dopamine transporter system. The settings on record: prior art compound; source not stated; cited from earlier work.
The target in series [10] is dopamine transporter. The series is described as follows: in vitro competition with [^3 H]-GBR 12935 on brain membrane preparations. The settings on record: for Ki: read-out: Affinity: Ki (nM) Dopamine (DA); for Selectivity 5-HT/DA, Ki(5-HT):Ki(DA): [^3 H]paroxetine Ki over [^3 H]GBR Ki. In kind it is binding. The procedure:
as §1, §2, §3, §4

Series [11] concerns the target serotonin transporter (Macaca fascicularis, UniProt A7KAX8). Particulars: read-out: Affinity: Ki (nM) Serotonin 5-HT; [^3 H]citalopram; document 10; cited from earlier work.
The subject of the next series is dopaminergic cells. Put plainly: rat model of Parkinson's disease (unilateral 6-OHDA lesion of the nigrostriatal pathway), ex vivo autoradiography. In kind it is in vivo, rat (Wistar). The settings on record: 2 hours after 3.7 MBq i.v. The procedure:
In this example, the compound of example 1 PE21 was tested in the rat using a model of Parkinson's disease obtained with a unilateral lesion of the nigrostriatal pathway. For this purpose Wistar rats were unilaterally perfused in the substantia nigra with 8 μg of 6-OHDA(6-hydroxy dopamine).
Three weeks later, they were given an intravenous 3.7 MBq injection of [^125 I]PE21.
Two hours afterwards, the rats were sacrificed and their brains collected. The latter were frozen and coronal sections 20 μm thick were taken which were exposed on β-max hyperfilm for six weeks.
The striatum/frontal cortex ratios were calculated after analysis of the films. On the lesion side, an average ratio of 0.86±0.10 was observed, while this ratio was 7.20±0.91 on the intact side.

Series [12] is described as follows: biodistribution study in the rat, time course (cerebellum, striatum, frontal cortex). In kind it is in vivo, rat (male Wistar). The settings on record: for tissue uptake at 0.5 h / tissue uptake at 1 h / tissue uptake at 2 h / tissue uptake at 4 h: rat, iv, 8e-06 mg/kg; for tissue uptake at 0.5 h: 0.5 h post-injection; for tissue uptake at 1 h: 1 h post-injection; for tissue uptake at 2 h: 2 h post-injection; for tissue uptake at 4 h: 4 h post-injection. The procedure: as §6, §7, §8, §9
In this example, a biodistribution study in the rat is also conducted for the compound of example 1 following the same operating mode as in example 14, but sacrificing the animals at 1/2 hour, 1 hour or 4 hours after injection.
In this table, the results obtained in example 14 are also given.

Series [13] addresses T1, dopamine transporters. The series is described as follows: in vitro affinity of [^125 I]PE21 for dopamine transporters. In kind it is binding. The procedure: The affinity of compound [^125 I)PE21 for dopamine transporters was also determined in vitro, and the following value was obtained: […]
For series [14], the system named is dopamine transporter system. The series is described as follows: kinetics study in vivo on the brain distribution in primates (SPECT, […]). Particulars: words. Also noted: species or system primates (Cynomologus female macaque). The procedure:
In this example, a kinetics study in vivo is made on the brain distribution of the compound of example 1 in primates (Cynomologus female macaque, 2 kg, anaesthetized with ketamine, with data acquisition made every 12 minutes on […]).

Series [15] addresses dopamine transporter. The series is described as follows: competition with [^3 H]Win35428 (document 10). In kind it is binding. Particulars: document 10 data.
Text: as §4

Setting [16] is: cerebellum, read-out: Cerebellum.
The mark [17] stands for this setting: frontal cortex, read-out: Frontal cortex (% injected dose/g tissue).
Where [18] appears, read: striatum, read-out: Striatum (% injected dose/g tissue).

T1 sequence (P23977 whole entry): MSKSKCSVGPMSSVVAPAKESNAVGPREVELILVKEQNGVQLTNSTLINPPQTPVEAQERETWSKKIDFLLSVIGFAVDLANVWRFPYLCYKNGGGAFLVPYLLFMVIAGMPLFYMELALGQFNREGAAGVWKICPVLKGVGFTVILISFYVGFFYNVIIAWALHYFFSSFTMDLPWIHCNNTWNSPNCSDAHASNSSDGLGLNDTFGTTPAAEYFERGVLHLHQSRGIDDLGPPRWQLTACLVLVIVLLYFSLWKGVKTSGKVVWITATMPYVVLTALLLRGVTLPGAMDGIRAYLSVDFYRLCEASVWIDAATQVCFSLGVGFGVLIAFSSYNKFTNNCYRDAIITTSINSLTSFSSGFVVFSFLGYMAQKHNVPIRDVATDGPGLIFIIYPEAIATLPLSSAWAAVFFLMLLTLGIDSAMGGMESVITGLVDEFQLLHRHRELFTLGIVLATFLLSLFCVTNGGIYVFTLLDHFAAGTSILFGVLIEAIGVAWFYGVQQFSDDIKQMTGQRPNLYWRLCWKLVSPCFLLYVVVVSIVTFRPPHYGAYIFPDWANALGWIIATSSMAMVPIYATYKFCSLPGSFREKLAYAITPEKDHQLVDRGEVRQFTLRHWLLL
Sequence of serotonin transporter (Macaca fascicularis, UniProt A7KAX8) (A7KAX8 1-630): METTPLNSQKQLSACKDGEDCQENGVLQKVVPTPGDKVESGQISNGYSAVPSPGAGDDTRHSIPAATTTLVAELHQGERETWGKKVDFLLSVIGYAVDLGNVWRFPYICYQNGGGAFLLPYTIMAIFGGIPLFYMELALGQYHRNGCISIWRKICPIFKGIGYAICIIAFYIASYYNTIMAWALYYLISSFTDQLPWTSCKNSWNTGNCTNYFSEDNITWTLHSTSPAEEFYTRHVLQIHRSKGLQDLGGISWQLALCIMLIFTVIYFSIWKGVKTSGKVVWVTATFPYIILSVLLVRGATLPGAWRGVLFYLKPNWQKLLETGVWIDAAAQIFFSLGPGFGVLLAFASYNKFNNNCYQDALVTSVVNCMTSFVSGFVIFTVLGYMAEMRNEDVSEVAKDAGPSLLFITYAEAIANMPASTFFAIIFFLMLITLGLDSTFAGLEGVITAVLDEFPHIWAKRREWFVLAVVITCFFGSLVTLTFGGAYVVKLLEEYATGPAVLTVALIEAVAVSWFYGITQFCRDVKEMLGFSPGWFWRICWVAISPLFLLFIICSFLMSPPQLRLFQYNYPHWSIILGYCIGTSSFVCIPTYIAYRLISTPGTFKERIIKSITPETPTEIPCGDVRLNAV
T3 sequence (P31652 whole entry): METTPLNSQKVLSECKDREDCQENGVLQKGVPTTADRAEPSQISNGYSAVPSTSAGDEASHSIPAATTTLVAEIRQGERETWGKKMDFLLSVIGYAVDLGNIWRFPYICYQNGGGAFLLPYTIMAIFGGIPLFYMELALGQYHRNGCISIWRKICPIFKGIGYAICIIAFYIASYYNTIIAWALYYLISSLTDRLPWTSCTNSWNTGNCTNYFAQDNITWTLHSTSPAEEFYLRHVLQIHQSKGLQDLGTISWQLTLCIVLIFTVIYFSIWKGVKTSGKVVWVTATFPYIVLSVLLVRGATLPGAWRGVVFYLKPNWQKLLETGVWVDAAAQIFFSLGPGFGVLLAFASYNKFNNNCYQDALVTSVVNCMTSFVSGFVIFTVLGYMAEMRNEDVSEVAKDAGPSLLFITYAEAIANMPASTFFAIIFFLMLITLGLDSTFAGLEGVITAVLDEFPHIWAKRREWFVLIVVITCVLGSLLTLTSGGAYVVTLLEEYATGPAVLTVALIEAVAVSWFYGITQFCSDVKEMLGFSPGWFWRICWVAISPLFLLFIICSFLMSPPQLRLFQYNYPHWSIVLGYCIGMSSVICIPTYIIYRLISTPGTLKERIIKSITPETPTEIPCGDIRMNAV
T2 sequence (Q63380 1-617): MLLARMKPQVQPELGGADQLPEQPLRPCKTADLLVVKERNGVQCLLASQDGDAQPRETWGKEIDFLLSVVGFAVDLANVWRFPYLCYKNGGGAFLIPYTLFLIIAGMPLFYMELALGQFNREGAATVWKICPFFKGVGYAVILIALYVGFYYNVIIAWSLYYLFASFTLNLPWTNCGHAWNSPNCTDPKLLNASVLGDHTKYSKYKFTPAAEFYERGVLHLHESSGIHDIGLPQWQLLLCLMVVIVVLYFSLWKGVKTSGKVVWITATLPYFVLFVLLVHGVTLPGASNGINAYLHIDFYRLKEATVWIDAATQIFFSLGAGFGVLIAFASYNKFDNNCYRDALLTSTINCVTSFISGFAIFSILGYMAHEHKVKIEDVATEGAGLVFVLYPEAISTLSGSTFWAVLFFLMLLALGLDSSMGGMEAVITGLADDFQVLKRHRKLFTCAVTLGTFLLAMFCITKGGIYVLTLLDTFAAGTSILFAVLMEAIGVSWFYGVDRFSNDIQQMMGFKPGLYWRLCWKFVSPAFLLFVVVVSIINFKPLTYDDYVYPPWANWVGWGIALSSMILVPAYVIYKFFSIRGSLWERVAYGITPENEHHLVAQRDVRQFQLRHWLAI

Regarding `C(=Cc1ccccc1)CN1CCN(CCOC(c2ccccc2)c2ccccc2)CC1` [GBR 12783], at dopamine transporter [1], the Kd was 1.6 nM.
Turning to `COC(=O)[C@H]1[C@@H](c2ccc(Cl)cc2)C[C@@H]2CC[C@H]1N2CC=CI` [IPT], the Kd was 0.25 ± 0.02 nM on dopamine transporters [2] and 1.2 ± 0.02 nM on serotonin transporters. Besides, the “specificity Kd(5-HT)/Kd(DA)” value on dopamine transporters [3] was “approximately 5”.
Turning to `COC(=O)[C@H]1[C@@H](c2ccc(I)cc2)C[C@@H]2CC[C@H]1N2C` [β-CIT, 2β-carbomethoxy-3β-(4' iodophenyl)-tropane, reference compound], the inhibition constant Ki in series [4] is 80 ± 28 nM; on serotonin transporter [5], 30 ± 2 nM; on dopamine transporter [8] it was 1.08 ± 0.6 nM; at dopamine transporter [10] ([^3 H]GBR) it was 27 ± 2 nM; at serotonin transporter [11], 2.53 ± 0.02 nM. Besides, the “non-specific fixation in the striatum determined after saturation with GBR 12909” value in the series with dopamine transporter [6] (2 hours) is listed as around 70%. The “fixation in the striatum prevented/inhibited by preinjection of GBR 12909” value with dopamine transporter [6] is given as 31%. Besides, the “fixation in the frontal cortex compared with the compound of the invention” value in the series on serotonin transporter [7] (frontal cortex, rich in serotonin transporter sites, 2 hours, words) is recorded as “much higher than that of the compound of the invention”. Besides, the “inhibition of fixation in the frontal cortex through a preinjection of paroxetine” value with serotonin transporter [7] (frontal cortex, paroxetine 5 mg/kg i.v. 30 min before, 2 hours) is 55%. Moreover, the “specificity for the dopamine transporter compared with the serotonin transporter in vivo” value in the series on serotonin transporter [7] (words) was “binds to both these transporters”. In addition, the “time at which a specific image of the central grey nuclei starts to be produced” value in [9] is above 20 h. Also, the “Selectivity 5-HT/DA, Ki(5-HT):Ki(DA)” value with dopamine transporter [10] came to 1.11.
For `COC(=O)[C@H]1[C@@H](c2ccc(C)cc2)C[C@@H]2CC[C@H]1N2C/C=C/[125I]` [Example 1, 2β-carbomethoxy-3β-(p-methylphenyl)-8-(3-[^125 I]iodoprop-2E-enyl)nortropane], in the series on dopaminergic cells (6-OHDA lesion side), the “striatum/frontal cortex ratio, lesion side” value turned out to be 0.86±0.10. Further, the “striatum/frontal cortex ratio, intact side” value in the series with dopaminergic cells (intact side) came to 7.20±0.91. In series [12] (setting [16]), the tissue uptake at 0.5 h stood at 0.1 %ID/g, the tissue uptake at 1 h amounted to 0.055 %ID/g, the tissue uptake at 2 h came to 0.038 %ID/g and the tissue uptake at 4 h stood at 0.021 %ID/g. Further, in [12] (setting [17]), the tissue uptake at 0.5 h worked out at 0.124 %ID/g, the tissue uptake at 1 h was 0.07 %ID/g, the tissue uptake at 2 h stood at 0.039 %ID/g and the tissue uptake at 4 h came out at 0.018 %ID/g. In series [12] (setting [18]), the tissue uptake at 0.5 h came out at 1.06 %ID/g, the tissue uptake at 1 h is 0.537 %ID/g, the tissue uptake at 2 h stood at 0.272 %ID/g and the tissue uptake at 4 h worked out at 0.074 %ID/g. The “accumulation in the striatum” value in series [12] (words) was “accumulates in preferential manner in the striatum”. Moreover, the “affinity relative to IPT” value at dopamine transporters [13] (Kd of PE21 vs Kd of IPT (document 11)) was found to be 2.5 times. On dopamine transporters [13] ([^125 I]PE21), this compound yielded a Kd of 0.09 ± 0.01 nM. Further, in series [4] ([^3 H]nisoxetine, read-out: Affinity: Ki (nM) Nor-adrenaline), the Ki was above 100 nM. In addition, the Ki at serotonin transporter [5] came to 500 ± 80 nM. Further, the “non-specific fixation in the striatum determined after saturation with GBR 12909” value in the series with dopamine transporter [6] (2 hours) was “approximately 25%”. Also, the “specificity for the dopamine transporter in the striatum at early times” value in the series with dopamine transporter [6] (2 hours, words) is “very strong specificity for the dopamine transporter in the striatum”. Besides, the “fixation in the striatum prevented/inhibited by preinjection of GBR 12909” value in the series with dopamine transporter [6] is 74%. Besides, the “specificity for the dopamine transporter compared with the serotonin transporter in vivo” value in the series with serotonin transporter [7] (words) is reported as “very strong specificity for the dopamine transporter compared with the serotonin transporter”. For the same compound, the “binding at the central grey nuclei” value in series [14] is recorded as “binds itself in specific manner at the central grey nuclei”. Besides, the “specificity relative to IPT” value with dopamine transporter [10] (Ki(5-HT)/Ki(DA) of PE21 vs Kd(5-HT)/Kd(DA) of IPT) is reported as 5 times. In addition, at dopamine transporter [10] ([^3 H]GBR), the “Ki ratio DA (PE21)/DA (β-CIT)” value is listed as 0.63 and the Ki was 17 ± 7 nM. In addition, the “Selectivity 5-HT/DA, Ki(5-HT):Ki(DA)” value in the series with dopamine transporter [10] was 29.4. Moreover, the “better affinity for dopamine transporter relative to iodoaltropane” value in the series on dopamine transporter [10] (from Ki ratios to β-CIT) amounted to 10 times.
In the case of `COC(=O)[C@H]1[C@@H](c2ccc(F)cc2)C[C@@H]2CC[C@H]1N2C/C=C/I` [Iodoaltropane], the Ki at dopamine transporter [8] is 6.62 ± 0.78 nM; at serotonin transporter [11], 182 ± 41.8 nM. In addition, the “Ki ratio DA (iodoaltropane)/DA (β-CIT)” value at dopamine transporter [15] is on record as 6.

As a reminder, the Kd is the free concentration of one partner at which half of the binding sites on the other are occupied at equilibrium, for simple one-to-one binding. For orientation: Ki means the equilibrium dissociation constant of an inhibitor or competing ligand from its target.
